For five compounds, melting point results are on record in patent US7071177B2, “P-(sulfonyl) aryl and heteroarylamines as anti-inflammatory agents” (Syntex (U.S.A.) LLC, priority 2000, dated 2006).

Turning to `Cc1ccc(CN(CCS(C)(=O)=O)c2ccc(S(N)(=O)=O)cc2)cc1` [2-2, 4-[(2-methylsulfonyl-ethyl)-(4-methyl-benzyl)-amino]-benzenesulfonamide], the melting point lay within 169.1 to 170 °C.

`CS(=O)(=O)CCN(Cc1ccccn1)c1ccc(S(C)(=O)=O)cc1` [1-45, 4-{N,N-[2-(methylsulfonyl)ethyl](pyridin-2-ylmethyl)amino}phenyl methyl sulfone] displayed a melting point of 139.5 to 140.5 °C.

`CCOc1ccc(CN(CCS(C)(=O)=O)c2ccc(S(C)(=O)=O)c(F)c2)cc1` [1-72, (4-ethoxy-benzyl)-(3-fluoro-4-methanesulfonyl-phenyl)-(2-methanesulfonyl-ethyl)-amine] yielded a melting point of 56 to 59 °C.

Compound `COc1ccc(CNS(=O)(=O)c2ccc(N(CCS(C)(=O)=O)Cc3ccc(C)cc3)cc2)cc1` [2-1, 4-[(2-methylsulfonyl-ethyl)-(4-methyl-benzyl)amino]-N-(4-methoxy-benzyl)-benzenesulfonamide] gave a melting point of 85.7 to 86.6 °C.

As to `CS(=O)(=O)CCN(Cc1ccc(F)cc1F)c1ccc(S(N)(=O)=O)cc1` [2-4, 4-[(2-methylsulfonyl-ethyl)-(2,4-difluorobenzyl)-amino]-benzenesulfonamide], the melting point fell in the range of 152.9 to 153.2 °C.

As a reminder, the melting point is the temperature of the solid-liquid transition.
